Experimental data as given in patent publication US20060069132A1, “Azolecarboxamide herbicides” (priority 2004, published 2006).

Key:
ducksalad = assay: Test B flooded paddy test; assay type: in vivo, Heteranthera limosa; settings: 1000 g ai/ha, scale 0 to 100 (0 no effect, 100 complete control)
Procedure, shortened: (§1)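 After treating 2-leaf paddy plants or 2–18 cm postemergence plants (1 to 4 leaves) with formulated chemical, researchers kept them in a greenhouse for 13–15 days. Effects were judged visually versus controls: 0 indicates none, 100 total control.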

[1] = test system: small flower umbrella sedge; assay: Test B flooded paddy test; assay type: in vivo, Cyperus difformis; settings: 1000 g ai/ha, scale 0 to 100 (0 no effect, 100 complete control)
Procedure, shortened: as §1

Surinam grass = assay: Test B pre-/postemergence herbicide test; assay type: in vivo, Urochloa decumbens; settings: for Surinam Grass plant response rating (0 to 100 scale) / Plant response rating, Surinam Grass: 0 = no effect, 100 = complete control, preemergence; for Surinam Grass plant response rating: postemergence
Procedure, shortened: (§2)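 Seeds were planted and treated preemergence with compounds formulated in a non-phytotoxic solvent mixture containing surfactant, while plants at the 1- to 4-leaf stage (2 to 18 cm) received postemergence sprays. Flooded paddy plants were grown to the 2-leaf stage. After 13 to 15 days in a greenhouse, injury was visually rated 0–100 against untreated controls.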

morningglory = assay: Test B pre-/postemergence herbicide test; assay type: in vivo, Ipomoea coccinea; settings: for Morningglory plant response rating (0 to 100 scale) / Plant response rating, Morningglory: 0 = no effect, 100 = complete control, preemergence; for Morningglory plant response rating: postemergence
Procedure, shortened: (§3)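 Flooded paddy rice and barnyardgrass were treated at the 2-leaf stage; upland plantings received compound either on sown seed or on 1- to 4-leaf seedlings. All were kept 13–15 days in a greenhouse and scored visually, 0–100, relative to untreated plants.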

wild oat = assay: Test B postemergence herbicide test; assay type: in vivo, Avena fatua; settings: postemergence
Procedure, shortened: (§4)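 Plants grow to 1- to 4-leaf stage (2–18 cm) for postemergence spraying, or to 2-leaf stage for the paddy test. Formulated compound is applied. Greenhouse holding lasts 13–15 days. Response is scored visually relative to controls, 0 no effect to 100 complete control; a dash means no result.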

pigweed = assay: Test B pre-/postemergence herbicide test; assay type: in vivo, Amaranthus retroflexus; settings: for Pigweed plant response rating (0 to 100 scale) / Plant response rating, Pigweed: 0 = no effect, 100 = complete control, preemergence; for Pigweed plant response rating: postemergence
Procedure, shortened: as §2

rice [2] = assay: Test B flooded paddy test; assay type: in vivo, Oryza sativa; settings: 1000 g ai/ha, scale 0 to 100 (0 no effect, 100 complete control)
Procedure, shortened: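 Visual ratings, 0 (no effect) to 100 (complete control), made versus controls after 13–15 d greenhouse. Paddy plants treated at 2-leaf stage; postemergence plants at 1- to 4-leaf stage, 2–18 cm tall.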

barnyardgrass [3] = assay: Test B pre-/postemergence herbicide test; assay type: in vivo, Echinochloa crus-galli; settings: for Barnyardgrass plant response rating (0 to 100 scale) / Plant response rating, Barnyardgrass: 0 = no effect, 100 = complete control, preemergence; for Barnyardgrass plant response rating: postemergence
Procedure, shortened: as §3

barnyardgrass [4] = assay: Test B flooded paddy test; assay type: in vivo, Echinochloa crus-galli; settings: 1000 g ai/ha, scale 0 to 100 (0 no effect, 100 complete control)
Procedure, shortened: as §1

blackgrass = assay: Test B postemergence herbicide test; assay type: in vivo, Alopecurus myosuroides; settings: postemergence
Procedure, shortened: as §1

rice [5] = assay: Test B pre-/postemergence herbicide test; assay type: in vivo, Oryza sativa; settings: 0 = no effect, 100 = complete control, preemergence; for Rice plant response rating (0 to 100 scale): 125 g ai/ha; for Plant response rating, Rice: 500 g ai/ha, visual rating
Procedure, shortened: as §2

wheat = assay: Test B postemergence herbicide test; assay type: in vivo, Triticum aestivum; design: key to Wheat plant response rating: 0 = no effect, 100 = complete control; settings: postemergence
Procedure, shortened: as §4

velvetleaf = assay: Test B pre-/postemergence herbicide test; assay type: in vivo, Abutilon theophrasti; settings: for Velvetleaf plant response rating (0 to 100 scale) / Plant response rating, Velvetleaf: 0 = no effect, 100 = complete control, preemergence; for Velvetleaf plant response rating: postemergence
Procedure, shortened: as §2

giant foxtail = assay: Test B pre-/postemergence herbicide test; assay type: in vivo, Setaria faberi; settings: for Foxtail, Giant plant response rating (0 to 100 scale) / Plant response rating, Foxtail, Giant: 0 = no effect, 100 = complete control, preemergence; for Foxtail, Giant plant response rating: postemergence
Procedure, shortened: as §2

corn = assay: Test B pre-/postemergence herbicide test; assay type: in vivo, Zea mays; settings: for Corn plant response rating (0 to 100 scale) / Plant response rating, Corn: 0 = no effect, 100 = complete control, preemergence; for Corn plant response rating: postemergence
Procedure, shortened: as §2

large crabgrass = assay: Test B pre-/postemergence herbicide test; assay type: in vivo, Digitaria sanguinalis; settings: for Crabgrass, Large plant response rating: postemergence
Procedure, shortened: as §2

lambsquarters = assay: Test B pre-/postemergence herbicide test; assay type: in vivo, Chenopodium album; settings: for Plant response rating, Lambsquarters: 0 = no effect, 100 = complete control, preemergence; for Lambsquarters plant response rating: postemergence
Procedure, shortened: as §2

cocklebur = assay: Test B pre-/postemergence herbicide test; assay type: in vivo, Xanthium strumarium; settings: for Cocklebur plant response rating (0 to 100 scale) / Plant response rating, Cocklebur: 0 = no effect, 100 = complete control, preemergence; for Cocklebur plant response rating: postemergence
Procedure, shortened: as §3

[6] = 125 g ai/ha, visual rating, scale 0 (no effect) to 100 (complete control)
[7] = 500 g ai/ha, scale 0 to 100, 0 is no effect, 100 is complete control
[8] = 500 g ai/ha, visual rating, scale 0 (no effect) to 100 (complete control)

CCn1nc(C(C)(C)C)cc1C(=O)Nc1nc(C(=O)OC)ccc1OC [Compound 265]
0: Ducksalad plant response rating (ducksalad) | Sedge, Umbrella plant response rating [1] | Surinam Grass plant response rating (0 to 100 scale) (Surinam grass; 125 g ai/ha) | Surinam Grass plant response rating (Surinam grass; [6]) | Surinam Grass plant response rating (Surinam grass; [7]) | Morningglory plant response rating (0 to 100 scale) (morningglory; 125 g ai/ha) | Plant response rating, Morningglory (morningglory; 500 g ai/ha, visual rating) | Morningglory plant response rating (morningglory; [6]) | Oat, Wild plant response rating (wild oat; [6]) | Pigweed plant response rating (0 to 100 scale) (pigweed; 125 g ai/ha) | Plant response rating, Pigweed (pigweed; 500 g ai/ha, visual rating) | Pigweed plant response rating (pigweed; [6]) | Rice plant response rating (rice [2]) | Barnyardgrass plant response rating (0 to 100 scale) (barnyardgrass [3]; 125 g ai/ha) | Plant response rating, Barnyardgrass (barnyardgrass [3]; 500 g ai/ha, visual rating) | Barnyardgrass plant response rating (barnyardgrass [3]; [6]) | Barnyardgrass plant response rating (barnyardgrass [3]; [8]) | Barnyardgrass plant response rating (barnyardgrass [4]) | Blackgrass plant response rating (blackgrass; [6]) | Rice plant response rating (0 to 100 scale) (rice [5]) | Plant response rating, Rice (rice [5]) | Wheat plant response rating (wheat; [6]) | Velvetleaf plant response rating (0 to 100 scale) (velvetleaf; 125 g ai/ha) | Velvetleaf plant response rating (velvetleaf; [6]) | Foxtail, Giant plant response rating (0 to 100 scale) (giant foxtail; 125 g ai/ha) | Foxtail, Giant plant response rating (giant foxtail; [6]) | Foxtail, Giant plant response rating (giant foxtail; [7]) | Corn plant response rating (0 to 100 scale) (corn; 125 g ai/ha) | Plant response rating, Corn (corn; 500 g ai/ha, visual rating) | Corn plant response rating (corn; [6]) | Crabgrass, Large plant response rating (large crabgrass; [6]) | Crabgrass, Large plant response rating (large crabgrass; [7]) | Plant response rating, Lambsquarters (lambsquarters; 500 g ai/ha, visual rating) | Lambsquarters plant response rating (lambsquarters; [6]) | Lambsquarters plant response rating (lambsquarters; [7]) | Cocklebur plant response rating (0 to 100 scale) (cocklebur; 125 g ai/ha) | Plant response rating, Cocklebur (cocklebur; 500 g ai/ha, visual rating) | Cocklebur plant response rating (cocklebur; [6]) | Cocklebur plant response rating (cocklebur; [8])
40: Plant response rating, Surinam Grass (Surinam grass; 500 g ai/ha, visual rating)
10: Morningglory plant response rating (morningglory; [7]) | Oat, Wild plant response rating (wild oat; [7]) | Blackgrass plant response rating (blackgrass; [8]) | Wheat plant response rating (wheat; [7]) | Plant response rating, Velvetleaf (velvetleaf; 500 g ai/ha, visual rating) | Velvetleaf plant response rating (velvetleaf; [7]) | Corn plant response rating (corn; [7])
50: Plant response rating, Foxtail, Giant (giant foxtail; 500 g ai/ha, visual rating)
20: Pigweed plant response rating (pigweed; [7])

CCNC(=O)c1ccc(F)c(NC(=O)c2c(F)c(C(C)(C)C)nn2CC)c1 [Compound 275]
80: Sedge, Umbrella plant response rating [1]
40: Plant response rating, Morningglory (morningglory; 500 g ai/ha, visual rating) | Oat, Wild plant response rating (wild oat; [7]) | Plant response rating, Pigweed (pigweed; 500 g ai/ha, visual rating) | Blackgrass plant response rating (blackgrass; [6]) | Blackgrass plant response rating (blackgrass; [7])
100: Plant response rating, Lambsquarters (lambsquarters; 500 g ai/ha, visual rating)
30: Surinam Grass plant response rating (Surinam grass; [7]) | Oat, Wild plant response rating (wild oat; [6]) | Wheat plant response rating (wheat; [7]) | Velvetleaf plant response rating (velvetleaf; [7])
70: Pigweed plant response rating (pigweed; [7]) | Lambsquarters plant response rating (lambsquarters; [7])
60: Ducksalad plant response rating (ducksalad) | Pigweed plant response rating (pigweed; [6]) | Plant response rating, Barnyardgrass (barnyardgrass [3]; 500 g ai/ha, visual rating) | Plant response rating, Rice (rice [5])
20: Rice plant response rating (rice [2]) | Barnyardgrass plant response rating (barnyardgrass [3]; [7]) | Barnyardgrass plant response rating (barnyardgrass [4]) | Wheat plant response rating (wheat; [6]) | Plant response rating, Foxtail, Giant (giant foxtail; 500 g ai/ha, visual rating) | Plant response rating, Corn (corn; 500 g ai/ha, visual rating)
50: Lambsquarters plant response rating (lambsquarters; [6])
10: Plant response rating, Surinam Grass (Surinam grass; 500 g ai/ha, visual rating) | Surinam Grass plant response rating (Surinam grass; [6]) | Morningglory plant response rating (morningglory; [7]) | Crabgrass, Large plant response rating (large crabgrass; [7]) | Cocklebur plant response rating (cocklebur; [7])
0: Surinam Grass plant response rating (0 to 100 scale) (Surinam grass; 125 g ai/ha) | Morningglory plant response rating (0 to 100 scale) (morningglory; 125 g ai/ha) | Morningglory plant response rating (morningglory; [6]) | Pigweed plant response rating (0 to 100 scale) (pigweed; 125 g ai/ha) | Barnyardgrass plant response rating (0 to 100 scale) (barnyardgrass [3]; 125 g ai/ha) | Barnyardgrass plant response rating (barnyardgrass [3]; [6]) | Rice plant response rating (0 to 100 scale) (rice [5]) | Velvetleaf plant response rating (0 to 100 scale) (velvetleaf; 125 g ai/ha) | Plant response rating, Velvetleaf (velvetleaf; 500 g ai/ha, visual rating) | Velvetleaf plant response rating (velvetleaf; [6]) | Foxtail, Giant plant response rating (0 to 100 scale) (giant foxtail; 125 g ai/ha) | Foxtail, Giant plant response rating (giant foxtail; [6]) | Foxtail, Giant plant response rating (giant foxtail; [7]) | Corn plant response rating (0 to 100 scale) (corn; 125 g ai/ha) | Corn plant response rating (corn; [6]) | Corn plant response rating (corn; [7]) | Crabgrass, Large plant response rating (0 to 100 scale) (large crabgrass; 125 g ai/ha, 0 = no effect, 100 = complete control, preemergence) | Plant response rating, Crabgrass, Large (large crabgrass; 500 g ai/ha, visual rating, 0 = no effect, 100 = complete control, preemergence) | Crabgrass, Large plant response rating (large crabgrass; [6]) | Cocklebur plant response rating (0 to 100 scale) (cocklebur; 125 g ai/ha) | Plant response rating, Cocklebur (cocklebur; 500 g ai/ha, visual rating) | Cocklebur plant response rating (cocklebur; [6])
